# Test results: patent US20230087950A1, “METHOD FOR SYNTHESIZING DOPA OLIGOPEPTIDE INTERMEDIATE AND USE, COMPOSITION AND PREPARATION THEREOF” (HAINAN UNIVERSITY, priority 2019, published 2023)
# Entries after “also recorded” stand apart in the source; their conditions may differ. Where a SMILES comes first, the peptide text is derived from it. [ ]: non-standard residue; d: D form. The star is where a group is joined. Dopa = N[C@@H](Cc1ccc(O)c(O)c1)C(=O)O; Stearoyl = CCCCCCCCCCCCCCCCCC(=O)*; Palmitoyl = CCCCCCCCCCCCCCCC(=O)*; Myristoyl = CCCCCCCCCCCCCC(=O)*
# Columns and labels:
# [1] = in vivo; cited from earlier work
# [2] = Gelation tests of L-DOPA-containing lipodipeptides in organic solvent/water; assay type: physicochemical; details: for Gel formation: organic solvents (MeOH, ethanol, toluene, THF, DMSO, DMF) with water; for Gel formation / Range of gelation concentrations: result in words
# Description: (§1) 1) Six samples of 40 mg FDD-16 was added into six 2 ml centrifuge tubes, followed by addition of 1 ml of respective organic solvents. Mother solutions were prepared using MeOH, ethanol, toluene, THF, DMSO, and DMF, respectively.
# (§2) 2) Aliquots of 50 μl of the above mother solutions were added, respectively, to nine 2 ml centrifuge tubes, followed by addition of organic solvents (MeOH, ethanol, toluene, THF, DMSO, DMF, respectively). The volume ratios of the organic solvent to distilled water were 1:9, 2:8, 3:7, 4:6, 5:5, 6:4, 7:3, 8:2 and 9:1, respectively. Tests of each solvent ratio were repeated 3 times. Gel formation rates and the corresponding sample concentrations were marked down.
# The experiments were performed like those of FDD-16.
# [3] = rat liver homogenate; cited from earlier work
# [4] = Gelation tests of conjugates of fatty acid and L-DOPA in organic solvent/water; assay type: physicochemical; details: Table 3
# Description: as §1, §2
# Tests were performed according to the tests done for FDD-16.
# [5] = Appearance and stability of gels by turning the tubes upside down; assay type: physicochemical; details: tubes turned upside down, standing for long time
# Text: The appearance and stability of gels formed from FDD-16 was studied by turning the tubes upside down and. […] This shed lights on future druggability study of FDD-16 using MeOH, ethanol, THF, DMSO and DMF as solvents. See FIG. 1 for gel formation experiments.
SMILES,"Gelation concentration ([2]; DMF/water, Table 2)","Gelation concentration ([2]; DMSO/water, Table 2)","Gelation concentration ([2]; Ethanol/water, Table 1)","Gelation concentration ([2]; MeOH/water, Table 1)",Gel formation [2],Range of gelation concentrations [2],further results
N[C@@H](Cc1ccc(O)c(O)c1)C(=O)O [L-DOPA],,,,,,,bioavailability [1]: 1-3%; time of effective blood drug concentration [1]: 50 min
CCCCCCCCCCCCCC(=O)N[C@@H](Cc1ccc(O)c(O)c1)C(=O)N[C@@H](CC(=O)O)C(=O)O [FDD-14] (Myristoyl-[Dopa]-Asp-OH),6~20 g/mL,8~22 g/mL,8~20 g/mL,8~22 g/mL,"could form stable gels; also recorded: formed gels in MeOH, ethanol, THF, DMSO and DMF; also recorded: higher possibilities to form gels; also recorded: can form stable gels",wide range of gelation concentrations,"Gelation concentration ([2]; THF/water, Table 2): 6~8 g/mL"
N[C@@H](Cc1ccc(O)c(O)c1)C(=O)N[C@@H](CC(=O)O)C(=O)O [H-DOPA-Asp-OH] (H-[Dopa]-Asp-OH),,,,,,,half-life [3]: about 174 min
CCCCCCCCCCCCCCCCCC(=O)N[C@@H](Cc1ccc(O)c(O)c1)C(=O)O [FD-18],,,,,,,Gelation concentration ([4]; Ethanol/water): 10~14 g/mL; Gelation concentration ([4]; MeOH/water): 10~15 g/mL
CCCCCCCCCCCCCCCC(=O)N[C@@H](Cc1ccc(O)c(O)c1)C(=O)N[C@@H](CC(=O)O)C(=O)O [FDD-16] (Palmitoyl-[Dopa]-Asp-OH),6~22 g/mL,6~28 g/mL,6~24 g/mL,6~26 g/mL,"could form stable gels; also recorded: formed gels in MeOH, ethanol, THF, DMSO and DMF; also recorded: can form stable gels",wide range of gelation concentrations,"Appearance and stability of gel [5]: in good condition and remained at the bottom while standing for long time; Gelation concentration ([2]; THF/water, Table 2): 8~12 g/mL"
CCCCCCCCCCCCCCCCCC(=O)N[C@@H](Cc1ccc(O)c(O)c1)C(=O)N[C@@H](CC(=O)O)C(=O)O [FDD-18] (Stearoyl-[Dopa]-Asp-OH),14~26 g/mL,16~30 g/mL,12~26 g/mL,10~16 g/mL,"could form stable gels; also recorded: formed gels in MeOH, ethanol, DMSO and DMF; also recorded: higher possibilities to form gels; also recorded: can form stable gels",narrower than those of FDD-16 and FDD-14,
CSCC[C@H](NC(=O)[C@@H](N)Cc1ccc(O)c(O)c1)C(=O)O [H-DOPA-Met-OH] (H-[Dopa]-Met-OH),,,,,,,half-life [3]: 16 min
